What was measured:
[1] = system: apomyoglobin peptide that has a lysine residue at the C-terminus (Lys-peptide); test: 18O atom incorporation into apomyoglobin Lys-peptides by LC/MS; assay type: biochemical, Horse
Procedure: (§1) We semi-quantitatively measured the rate of ^18O atom incorporation into Lys-C and tryptic peptides derived from apomyoglobin. This was done to test whether the increased rate of carboxyl oxygen exchange noted for the reaction of Ac-Lys-OH at acidic pH could be generalized to peptide substrates. Apomyoglobin (34 μg) was digested for 16 hours at 25° C. with either 1 μg of Lys-C or trypsin in 100 mM ammonium bicarbonate in H2^16O solvent. The digestion was stopped by adding formic acid to a final concentration of 1% and by boiling the reaction mixture for 2 minutes. The resulting Lys-C and tryptic peptides were lyophilized and used in the following experiments.
(§2) The rate of the carboxyl oxygen exchange reaction into the Lys-C and tryptic peptides by Lys-C and trypsin, respectively, were semi-quantitatively measured by looking at the rate of ^18O atom incorporation into the carboxyl termini of the peptides by LC/MS (described below). The Lys-C and tryptic digests (both 1.5 μg) were incubated with Lys-C and trypsin (both 0.03 μg), respectively, in H2^18O at 30° C. buffered (see above) at pH 5.0 or 9.0 for Lys-C and pH 6.0 or 8.0 for trypsin for various reaction times (1 minute-60 minutes). The total reaction volume was 50 μL. Aliquots (5 μL) of the reaction mixtures were taken after 1, 5, 10, and 60 minutes. The reactions were stopped by mixing with 40 μL of 10% formic acid and by heating at 95° C. for 2 minutes. After the heat treatment, the solvents were evaporated in the speed-vac concentrator and the samples were stored at −20° C. until use.
The stored ^18O labeled peptide mixtures were reconstituted in 20 μL of aqueous 0.1% trifluoroacetic acid (TFA), desalted by a C18 ZipTip as per the manufacturer's instructions (Millipore, Bedford, Mass.), and subjected to LC/MS analysis using an UltiMate nano HPLC system (Dionex, San Francisco, Calif.) interfaced to a QStar quadrupole/time of flight mass spectrometer (Applied Biosystems-MDS Sciex, Foster City, Calif.), as described previously. Briefly, the peptide mixture (5 μl) was injected directly into a reverse-phase analytical column (0.075×60 mm, New Objective Inc., Woburn, Mass.) packed with Jupiter C18 media (Phenomenex, Torrance, Calif.), washed with 2% acetonitrile/0.1% formic acid (v/v) in water for 15 minutes at flow rate of 2 μL/min. The peptides were then eluted with a 40 minute linear gradient of 2% acetonitrile/0.1% formic acid (v/v) in water to 40% acetonitrile/0.1% formic acid (v/v) in water at a flow rate of 200 nL/min. The column effluent was directed on-line to a nano-electrospray ion source. The total ion current was obtained in the mass range of m/z 400-1600 in the positive ion mode. The electrospray and orifice voltages were 2050V and 65V, respectively.

[2] = system: peptide that has an arginine residue at the C-terminus (Arg-peptide); test: 18O atom incorporation into apomyoglobin Arg-peptides by LC/MS; assay type: biochemical, Horse; conditions: for time to complete incorporation of two ^18O atoms: H2^18O
Procedure: as §1, §2
The stored ^18O labeled peptide mixtures were reconstituted in 20 μL of aqueous 0.1% trifluoroacetic acid (TFA), desalted by a C18 ZipTip as per the manufacturer's instructions (Millipore, Bedford, Mass.), and subjected to LC/MS analysis using an UltiMate nano HPLC system (Dionex, San Francisco, Calif.) interfaced to a QStar quadrupole/time of flight mass spectrometer (Applied Biosystems-MDS Sciex, Foster City, Calif.), as described previously. […]

[3] = amidase activity (hydrolysis of Ac-Lys-NH2 in H2^18O); assay type: biochemical; conditions: 10 mM Ac-Lys-NH2, 25° C., 95% H2^18O, within the pH range examined
Procedure: The amidase activity of Lys-C and trypsin was measured by monitoring the initial rate of hydrolysis of Ac-Lys-NH2 in H2^18O. Ac-Lys-NH2 (10 mM) was incubated with 0.2 uM Lys-C or 1 uM trypsin at 25° C. in 95% H2^18O at various pHs. The buffer solutions used were the same as described above for the carboxyl oxygen exchange reactions. The duration of the reaction was 5 min for Lys-C and 20 min for trypsin. The single ^18O atom incorporated reaction product, Ac-Lys-^18OH, was quantified after addition of a [^13C2]Ac-Lys-OH internal standard (0.75 μg) by stable isotope dilution tandem mass spectrometry, as described below. All reactions were carried out in triplicate.
(§3) An Agilent 1100 HPLC system (Palo Alto, Calif.) coupled to an API 3000 triple quadrupole mass spectrometer equipped with a TurbolonSpray™ ion source (Applied Biosystems-MDS-Sciex, Foster City, Calif.) was used to quantify Ac-Lys-^18OH. […]
The ion spray voltage and the ion source probe temperature were set at 5 kV and 400° C., respectively. […] The precursor and fragment ions monitored were m/z 191 (Ac-Lys-^18OH+H) and 149 (H-Lys-^18OH+H) for Ac-Lys-^18OH and m/z 191 ([^13C2]Ac-Lys-OH+H) and 147 (H-Lys-^16OH+H) for [^13C2]Ac-Lys-OH, respectively. […]

[4] = steady-state kinetic parameters for the carboxyl oxygen exchange reaction; assay type: biochemical
Procedure: The steady-state kinetic parameters for the carboxyl oxygen exchange reaction by Lys-C and trypsin were obtained at two different pHs (pH 9.0 and 5.0 for Lys-C and pH 8.0 and 6.0 for trypsin). Ac-Lys-OH (0.0625-10 mM) was incubated with 1 uM Lys-C or trypsin at 30° C. in 95% H2^1 80 buffered at various pHs (described above). The total volume of the reaction was 20 μL. The duration of the reaction was 10 min for Lys-C and 20 min for trypsin. The single ^18O atom incorporated reaction product, Ac-Lys-180H, was quantified after addition of a [^13C2]Ac-Lys-OH internal standard (0.75 μg) by stable isotope dilution tandem mass spectrometry, as described below. All reactions were carried out in triplicate.
Km and Vmax values were calculated by fitting the Michaelis-Menten equation to the experimental data using SigmaPlot 9.01 (Systat Software, Richmond, Calif.). Kcat values were calculated by dividing the obtained Vmax values by the total enzyme amount added to the system.
An Agilent 1100 HPLC system (Palo Alto, Calif.) coupled to an API 3000 triple quadrupole mass spectrometer equipped with a TurbolonSpray™ ion source (Applied Biosystems-MDS-Sciex, Foster City, Calif.) was used to quantify Ac-Lys-^18OH. The reconstituted reaction mixtures were injected (typically 5 μL) onto a reversed-phase C18 column (2.1×150 mm, 5 μm, 300 Å, Vydac) equilibrated with 5% acetonitrile/0.1% HFBA (v/v) in water and then eluted with the same solvent at a flow rate of 200 μL/min. A switching valve (Valco Instrument, Houston, Tex.) was placed between the HPLC system and the mass spectrometer to divert non-volatile salt fractions from the mass spectrometer at the beginning of the run. The switching valve was switched in-line with the mass spectrometer at 3 minutes after the injection. The elution time of Ac-Lys-^18OH was 3.8 minutes.
The ion spray voltage and the ion source probe temperature were set at 5 kV and 400° C., respectively. Nitrogen was used both as a nebulizer and as an auxiliary gas, at flow rates of 3 and 8 L/min, respectively. A multiple reaction monitoring mode was used for monitoring Ac-Lys-^18OH and [^13C2]Ac-Lys-OH. The precursor and fragment ions monitored were m/z 191 (Ac-Lys-^18OH+H) and 149 (H-Lys-^18OH+H) for Ac-Lys-^18OH and m/z 191 ([^13C2]Ac-Lys-OH+H) and 147 (H-Lys-^16OH+H) for [^13C2]Ac-Lys-OH, respectively. […]
Amounts of Ac-Lys-^18OH in the reaction mixture were determined from the chromatographic peak area ratios of the analyte over the internal standard, assuming identical ionization efficiencies and identical yields of fragment ions for Ac-Lys-^18OH and [^13C2]Ac-Lys-OH. The experimentally determined amounts of Ac-Lys-^18OH were corrected upward 5%, accounting for 60 incorporation resulting from the H2^18O solvent having a 5% H2^16O content. […]

[5] = pH dependency of the carboxyl oxygen exchange reaction (18O incorporation into Ac-Lys-OH); assay type: biochemical; conditions: 10 mM Ac-Lys-OH, 1 μM enzyme, 25° C., 95% H2^18O, pH 4.0-9.0 examined
Procedure: The initial rate of carboxyl oxygen exchange reaction catalyzed by Lys-C and trypsin was determined by monitoring the rate of ^18O atom incorporation into the carboxyl terminus of Ac-Lys-OH. For the pH studies, a 10 mM solution of Ac-Lys-OH in aqueous buffers at different pHs was incubated with 1 μM Lys-C or trypsin at 25° C. in 95% H2^18O buffered at various pHs. The buffer solutions used were 50 mM citrate at pH 4.0, 5.0 and 6.0 (pH adjusted by addition of NaOH), 50 mM phosphate at pH 7.0 and 8.0 (pH adjusted by addition of NaOH) and 50 mM Tris at pH 9.0 (pH adjusted by addition of HCl). The duration of the reaction was 5 minutes for Lys-C and 20 minutes for trypsin. […] The single ^18O atom incorporated reaction product, Ac-Lys-^18OH, in the reconstituted reaction solution was then quantified by stable isotope dilution tandem mass spectrometry, as described below. […]
as §3
Amounts of Ac-Lys-^18OH in the reaction mixture were determined from the chromatographic peak area ratios of the analyte over the internal standard, assuming identical ionization efficiencies and identical yields of fragment ions for Ac-Lys-^18OH and [^13C2]Ac-Lys-OH. […]

Which results are given for trypsin?
time to complete incorporation of two ^18O atoms ([1]; pH 6.0, 30° C., H2^18O): ≤ 10 min; dominant result after 1 minute of incubation ([1]; pH 6.0 and 8.0): incorporation of only one ^18O atom; dominant result of ^18O incorporation ([1]; pH 8.0, 30° C., H2^18O): incorporation of only one ^18O atom; time to complete incorporation of two ^18O atoms ([1]; pH 8.0, 30° C., H2^18O): > 60 min; dominant peak after 1 minute of incubation ([2]; both pH 6.0 and 8.0): two ^18O atoms; time to complete incorporation of two ^18O atoms ([2]; pH 6.0, 30° C.): ≤ 10 min; time to complete incorporation of two ^18O atoms ([2]; pH 8.0, 30° C.): 60 min; most favorable pH for the amidase activity [3]: 9 pH; kcat/Km of carboxyl oxygen exchange, fold lower than reported kcat/Km for amide hydrolysis ([4]; pH 6.0 versus N-benzoyl-L-lysine amide hydrolysis at pH 8.0): 5.1 fold; Km, fold smaller at acidic than at alkaline pH ([4]; pH 6.0 versus pH 8.0): about 3 fold; kcat, fold higher at acidic than at alkaline pH ([4]; pH 6.0 versus pH 8.0): about 5 fold; rate of the carboxyl oxygen exchange ([4]; pH 9.0): too low; optimum pH of the carboxyl oxygen exchange reaction [5]: 6.0 pH

Reference: patent US8580534B2, “Method for incorporation of two oxygen atoms into digested peptides using peptidases” (The University of North Dakota, priority 2006, dated 2013)
